Measurements taken from EP1228058B1, “BENZOPYRANYL GUANIDINE DERIVATIVES, PROCESS FOR PREPARATION THEREOF, AND PHARMACEUTICAL COMPOSITIONS CONTAINING THEM” (Dongbu Hannong Chemical Co., Ltd., priority 1999, dated 2001).

Assays:
[1] = Acute oral toxicity test in rats; conditions: rat, in vivo, single oral dose in 0.5% methyl cellulose, read-out: lethal dose (LD50) for oral administration
Outline: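 Six-week-old SPF SD rats, two per group, received a single oral dose of 1 g/kg suspended in 0.5% methyl cellulose (10 ml/kg). Survivors at the end of observation underwent haematology, serum chemistry, necropsy and histopathology of vital organs with macroscopic lesions.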

[2] = system: cerebral cortical neurons; test: Protective activity for neurons against iron-induced death (LDH release); assay type: cell-based; conditions: Rattus norvegicus, Cortical neurone, FeSO4 50 uM, 24 hours, LDH reduction, read-out: % Protection
Method: From the brains of 17-18 day-old rat embryos, cerebral cortical neurons were isolated and then, cultured at 37 °C for 7-9 days in a 5% CO2 incubator. The cortical cell cultures were washed twice with a minimum essential medium (MEM) to reduce the serum concentration to 0.2 % and pre-treated for 30 min with 10 uM and 30 uM of each of test compounds. For the experiments, the test compounds were dissolved in DMSO and diluted in a medium. At this time, the final concentration of DMSO was not allowed to exceed 0.2 %. For a control group, only vehicle was applied.
After the pre-treatment with test compounds or vehicle, FeSO4 was added to a final concentration of 50 uM, and the cultures were maintained for 24 hours in a CO2 incubator. During incubation, lactate dehydrogenase (LDH) was released into the medium upon neuronal death by the oxidative toxicity of iron. The extent of neuronal damage was assessed by measuring the amount of LDH secreted into the media. The protective effect of the compounds of interest on neurons was evaluated by calculating the LDH reduction rate of treatment group compared with that of the control group.

rat aorta = test: Vasodilation effects on isolated blood vessels of rats (methoxamine-constricted aortic rings); assay type: cell-based; conditions: isolated rat aorta constricted with methoxamine (3 uM); read-out: Vasodilation Activity (in Vitro, rat aorta) (IC50)
Text: Male Sprague-Dawly rats (350-450 g, obtained from the Experimental Animal Team of the Korea Research Institute of Chemical Technology) were knocked unconscious by hitting the occipital region, sacrificed by cervical dislocation, and underwent thoracotomy. After being quickly removed, the thoracic aorta was deprived of the adipose tissue and cut into aortic rings of 3 mm width. The aorta was lightly rubbed with a modified Krebs Henseleit buffer (Physiological Salt Solution, PSS) soaked cotton club to remove the inner epithelial layer therefrom. While being suspended in an organ bath containing a physiological buffer, the vascular tissue was allowed to equilibrate under a resting tension of 2 g and then, stand for 1 hour at 37 °C for stabilization with a supply of a carbogen consisting of 95% O2-5% CO2.
Thereafter, the vascular tissue was constricted with 10^-5 M phenylephrine and washed several times with PSS and this procedure was repeated again to ensure the stable reacivity of vascular smooth muscle to repetitive constriction/dilatation.
In addition, 3x10^-6 M methoxamine was used to induce an intensive constriction in the vascular smooth muscle. When the vasoconstriction induced by the methoxamine reached and maintained a maximum, test compounds and controls were cumulatively added to the organ baths in concentrations of 1, 3, 10 and 30 uM so as to induce vasodilatation. As for the controls, they were Cromakalim and BMS-180448 (the compounds of the chemical formula 2), both known to be the first generation KATP activator with potent vasodilatation and cardioprotection effects.
Following the addition of the drugs, the change in the maximal constriction induced by methoxamine was calculated to plot a concentration-dilation response curve. Through a linear regression analysis, IC50, the drug concentration at which the vascular tissue is 50% dilated, was obtained for each drug.

rat brain homogenate = test: Inhibition of iron-induced lipid peroxidation (MDA quantification); assay type: biochemical; conditions: 100 uM; FeCl2 400 uM, 37 °C, 30 min
Method: The rat brain was homogenized in a Krebs buffer (15 mM HEPES, 10 mM glucose, 140 mM NaCl, 3.6 mM KCl, 1.5 mM CaCl2, 1.4 mM KH2PO4, 0.7 mM MgCl2, pH 7.4) and the supernatant separated by centrifugation at 12,000 rpm for 10 min. was used for further experiments. FeCl2 was added to a final concentration of 400 uM in the brain homogenate which was then allowed to stand at 37 °C for 30 min. for the facilitation of oxidation. Each of the test compounds was added at a concentration of 100 uM and vehicle was used as a control.
Iron facilitates the oxidation of the brain homogenate to produce malondialdehyde (MDA), a lipid peroxidation product. Thus, the lipid peroxidation was determined by MDA quantification. The inhibitory effect of the test compounds against the lipid peroxidation was evaluated by calculating MDA reduction rate of the test compounds compared with that of the control group.
Typically, the MDA quantification is achieved by reacting samples with 2-thiobarbituric acid (TBA) and measuring the absorbance at 530 nm. However, this method is unsuitable to treat samples on a large scale because of a boiling step. Thus, in this experiment, N-methyl-2-phenylindole was used instead of TBA. […] Bioxytech^R LPO-586 Kit was used for MDA quantification.

Structure (SMILES)	LD50 [1]	inhibition at 10 µM [2]	inhibition at 30 µM [2]	IC50 (rat aorta)	% Inhibition (rat brain homogenate)
COC(OC)[C@@]1(C)Oc2ccc(N)cc2[C@@H](NC(=NC#N)NCc2ccccc2)[C@@H]1O [Example 40, (2S, 3S, 4R)-N''-cyano-N-(6 - amino-3,4-dihydro-3-hydroxy-2-methyl-2-dimethoxymethyl-2H-benzopyran-4-yl)-N'-benzylguanidine]	> 1000 mg/kg	45%	97%	> 30 µM	79%
COC(OC)[C@@]1(C)Oc2ccc([N+](=O)[O-])cc2[C@@H](NC(=NC#N)NCc2ccccc2)[C@@H]1OC(C)=O [Example 38, (2S, 3S, 4R)-N''-cyano-N-(6-nitro-3,4-dihydro-3-acetoxy-2-methyl-2-dimethoxymethyl-2H-benzopyran-4-yl)-N'-benzylguanidine]	> 1000 mg/kg	56%	78%	24.5 µM	4%
COC(OC)[C@@]1(C)Oc2ccc([N+](=O)[O-])cc2[C@@H](NC(=NC#N)NCc2ccccc2)[C@@H]1O [Example 25, (2S, 3S, 4R)-N''-cyano-N-(6-nitro-3,4-dihydro-3-hydroxy-2-methyl-2-dimethoxymethyl-2H-benzopyran-4-yl)-N'-benzylguanidine]	> 1000 mg/kg		69%	> 30 µM	2%
COC(OC)[C@@]1(C)Oc2ccc([N+](=O)[O-])cc2[C@H](NC(=NC#N)NCc2ccccc2)[C@H]1O [Example 24, (2S, 3R, 4S)-N''-cyano-N-(6-nitro-3,4-dihydro-3-hydroxy-2-methyl-2-dimethoxymethyl-2H-benzopyran-4-yl)-N'-benzylguanidine]	> 1000 mg/kg	29%	47%	9.78 µM	12%
COC(OC)[C@@]1(C)Oc2ccc([N+](=O)[O-])cc2[C@H](NC(=NC#N)Nc2ccccc2Cl)[C@H]1O [Example 32, (2S, 3R, 4S)-N''-cyano-N-(6-nitro-3,4-dihydro-3-hydroxy-2-methyl-2-dimethoxymethyl-2H-benzopyran-4-yl)-N'-(2-chlorophenyl)guanidine]	> 1000 mg/kg			3.57 µM	86%
